From article PMC6440935, “Characterization and phase I study of CLR457, an orally bioavailable pan-class I PI3-kinase inhibitor” (Investigational New Drugs, 2018)

Assays:
[1] = First-in-human phase I study: plasma pharmacokinetics; conditions: for Racc, geometric mean (CV%) / V/F, geometric mean (CV%): cycle 1 day 15
Experimental: The starting dose for CLR457 was 5 mg QD, based on preclinical toxicology studies in accordance with ICH guidelines, and was administered at the same time each day ±2 h in a fasted state. Various doses were planned up to 300 mg QD until MTD determination.
PK parameters including area under the curve (AUC), maximum serum concentration (Cmax), and time taken to reach Cmax (Tmax) were calculated using non-compartmental methods in Phoenix WinNonlin. [20]
[21] […] The Pharmacokinetic analysis set included all patients who had at least one blood sample providing evaluable PK data.

[2] = tested on: blood glucose and plasma insulin levels; assay: Blood glucose and plasma insulin in tumor bearing nude mice; type: in vivo
Experimental: (§1) [13] […] [13] […] CLR457 antitumor activity was then evaluated as described previously. […] (Supplemental Methods).

Rat1-myr-p110α tumors = assay: Rat1-myr-p110α tumor xenograft in nude mice; type: in vivo
Experimental: as §1
(§2) The significant level was set at p < 0.05.

p110δ = p110δ (Homo sapiens, UniProt O00329); assay: In vitro PI3K biochemical assay, p110δ
p110δ, sequence (O00329 2-1044 limits assumed): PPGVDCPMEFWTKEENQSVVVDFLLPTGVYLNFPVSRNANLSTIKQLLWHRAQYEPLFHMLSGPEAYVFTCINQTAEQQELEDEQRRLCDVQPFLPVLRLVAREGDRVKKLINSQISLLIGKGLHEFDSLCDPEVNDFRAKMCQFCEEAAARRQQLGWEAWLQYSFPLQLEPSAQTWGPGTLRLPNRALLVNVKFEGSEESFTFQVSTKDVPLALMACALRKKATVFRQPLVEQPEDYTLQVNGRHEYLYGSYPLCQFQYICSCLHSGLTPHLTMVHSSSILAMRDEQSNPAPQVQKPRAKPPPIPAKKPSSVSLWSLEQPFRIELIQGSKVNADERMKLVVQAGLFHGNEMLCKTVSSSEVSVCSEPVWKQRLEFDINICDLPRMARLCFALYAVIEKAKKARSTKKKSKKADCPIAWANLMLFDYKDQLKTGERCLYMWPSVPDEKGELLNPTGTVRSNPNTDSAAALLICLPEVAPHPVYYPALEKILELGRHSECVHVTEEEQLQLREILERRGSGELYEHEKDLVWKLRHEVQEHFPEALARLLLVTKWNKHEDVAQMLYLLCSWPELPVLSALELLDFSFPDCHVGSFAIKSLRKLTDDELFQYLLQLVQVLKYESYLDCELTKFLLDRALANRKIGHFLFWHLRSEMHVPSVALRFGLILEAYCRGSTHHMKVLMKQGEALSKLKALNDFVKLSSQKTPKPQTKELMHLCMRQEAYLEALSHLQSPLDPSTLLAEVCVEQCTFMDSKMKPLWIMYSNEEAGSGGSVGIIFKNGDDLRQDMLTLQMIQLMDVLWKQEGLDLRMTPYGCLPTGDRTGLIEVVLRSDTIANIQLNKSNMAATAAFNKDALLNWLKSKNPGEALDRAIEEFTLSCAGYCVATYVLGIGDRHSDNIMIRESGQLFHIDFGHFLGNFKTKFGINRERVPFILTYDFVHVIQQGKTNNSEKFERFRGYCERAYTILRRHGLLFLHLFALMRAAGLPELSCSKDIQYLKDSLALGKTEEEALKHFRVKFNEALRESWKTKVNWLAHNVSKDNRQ
p110δ, sequence (P27986 461-568 partner limits assumed): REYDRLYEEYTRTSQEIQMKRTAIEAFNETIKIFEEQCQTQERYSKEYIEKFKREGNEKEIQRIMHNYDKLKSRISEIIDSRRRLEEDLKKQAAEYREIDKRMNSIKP

[3] = tested on: blood glucose and plasma insulin levels; assay: Blood glucose and plasma insulin in tumor bearing nude rats; type: in vivo
Experimental: as §1

[4] = molecular target: PIK3CA E545K (helical domain mutation) (Homo sapiens, UniProt P42336, E545K); assay: In vitro profiling, PIK3CA mutant isoform E545K; type: biochemical; conditions: data not shown
PIK3CA E545K (helical domain mutation), sequence (P42336 21-1068 E545K limits assumed): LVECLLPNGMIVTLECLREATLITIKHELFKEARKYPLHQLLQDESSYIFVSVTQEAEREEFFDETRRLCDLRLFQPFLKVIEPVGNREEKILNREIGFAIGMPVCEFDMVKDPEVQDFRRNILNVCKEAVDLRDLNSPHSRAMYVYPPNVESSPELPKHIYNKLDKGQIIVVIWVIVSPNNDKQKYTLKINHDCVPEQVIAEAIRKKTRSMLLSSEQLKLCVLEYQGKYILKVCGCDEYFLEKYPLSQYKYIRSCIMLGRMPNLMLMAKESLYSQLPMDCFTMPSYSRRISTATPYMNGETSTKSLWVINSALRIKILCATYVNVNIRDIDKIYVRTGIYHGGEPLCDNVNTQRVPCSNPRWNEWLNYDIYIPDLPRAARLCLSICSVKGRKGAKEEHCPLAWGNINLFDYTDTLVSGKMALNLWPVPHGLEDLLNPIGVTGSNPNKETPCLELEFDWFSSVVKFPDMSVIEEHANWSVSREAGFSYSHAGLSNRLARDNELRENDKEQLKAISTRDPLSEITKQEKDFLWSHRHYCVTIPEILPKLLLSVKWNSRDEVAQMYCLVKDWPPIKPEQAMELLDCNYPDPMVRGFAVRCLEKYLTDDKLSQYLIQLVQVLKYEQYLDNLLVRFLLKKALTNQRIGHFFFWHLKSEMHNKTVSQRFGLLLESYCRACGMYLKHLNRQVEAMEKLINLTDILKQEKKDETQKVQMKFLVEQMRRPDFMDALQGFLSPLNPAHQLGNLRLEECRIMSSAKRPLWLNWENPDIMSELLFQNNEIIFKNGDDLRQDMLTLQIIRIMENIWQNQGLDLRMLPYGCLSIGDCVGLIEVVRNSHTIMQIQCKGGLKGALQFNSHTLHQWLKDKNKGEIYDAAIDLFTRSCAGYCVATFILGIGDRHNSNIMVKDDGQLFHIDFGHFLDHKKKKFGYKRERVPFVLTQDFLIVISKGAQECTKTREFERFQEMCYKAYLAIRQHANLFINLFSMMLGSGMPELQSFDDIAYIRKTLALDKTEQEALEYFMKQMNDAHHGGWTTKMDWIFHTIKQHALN
PIK3CA E545K (helical domain mutation), sequence (P27986 461-568 partner limits assumed): as the sequence (P27986 461-568 partner limits assumed) above

[5] = molecular target: PIK3CA H1047R (kinase domain mutation) (Homo sapiens, UniProt P42336, H1047R); assay: In vitro profiling, PIK3CA mutant isoform H1047R; type: biochemical; conditions: data not shown
PIK3CA H1047R (kinase domain mutation), sequence (P42336 21-1068 H1047R limits assumed): as the sequence (P42336 21-1068 E545K limits assumed) above, with K525E, H1027R counted along it
PIK3CA H1047R (kinase domain mutation), sequence (P27986 461-568 partner limits assumed): as the sequence (P27986 461-568 partner limits assumed) above

glucose and insulin = assay: First-in-human phase I study: pharmacodynamic markers glucose and insulin; type: in vivo; conditions: 100 mg QD; not clinically significant
Experimental: At the dose of 100 mg QD, there was an increase in the pharmacodynamic markers glucose and insulin, consistent with that observed in the preclinical models, however this increase was not clinically significant (CTCAE grade ≤ 2) (Fig. 3) and was within the range of expected changes based on preclinical data (Fig. 2).

p110β = p110β (Homo sapiens, UniProt P42338); assay: In vitro PI3K biochemical assay, p110β
p110β, sequence (P42338 2-1070 limits assumed): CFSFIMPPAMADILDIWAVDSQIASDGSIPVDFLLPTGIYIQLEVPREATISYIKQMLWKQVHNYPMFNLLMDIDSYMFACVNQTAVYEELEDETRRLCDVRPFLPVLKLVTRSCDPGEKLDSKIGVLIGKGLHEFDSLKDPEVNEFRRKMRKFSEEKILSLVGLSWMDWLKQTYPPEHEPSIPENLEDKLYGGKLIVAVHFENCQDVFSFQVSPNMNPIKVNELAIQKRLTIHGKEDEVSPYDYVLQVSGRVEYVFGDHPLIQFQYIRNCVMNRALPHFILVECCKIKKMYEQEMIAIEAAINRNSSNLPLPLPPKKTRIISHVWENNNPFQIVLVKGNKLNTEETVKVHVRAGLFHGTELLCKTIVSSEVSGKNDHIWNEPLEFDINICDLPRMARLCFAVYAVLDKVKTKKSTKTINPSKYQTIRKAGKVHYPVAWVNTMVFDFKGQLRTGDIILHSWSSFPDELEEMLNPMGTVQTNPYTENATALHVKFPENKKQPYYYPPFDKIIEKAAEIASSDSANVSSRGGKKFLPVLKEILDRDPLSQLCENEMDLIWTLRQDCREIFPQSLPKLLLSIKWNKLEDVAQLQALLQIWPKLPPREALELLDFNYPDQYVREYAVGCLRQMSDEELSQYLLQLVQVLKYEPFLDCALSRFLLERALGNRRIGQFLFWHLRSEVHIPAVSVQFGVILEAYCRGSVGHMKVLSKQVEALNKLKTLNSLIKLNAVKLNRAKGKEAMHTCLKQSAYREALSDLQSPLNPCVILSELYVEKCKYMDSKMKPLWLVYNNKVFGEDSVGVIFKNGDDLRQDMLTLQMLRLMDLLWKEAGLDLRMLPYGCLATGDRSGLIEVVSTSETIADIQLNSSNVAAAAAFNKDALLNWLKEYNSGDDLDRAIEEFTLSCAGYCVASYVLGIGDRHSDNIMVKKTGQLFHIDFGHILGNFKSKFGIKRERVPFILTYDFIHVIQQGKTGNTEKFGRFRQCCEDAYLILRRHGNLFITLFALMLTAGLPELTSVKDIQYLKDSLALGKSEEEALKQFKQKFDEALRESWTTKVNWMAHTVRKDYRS
p110β, sequence (P27986 461-568 partner limits assumed): as the sequence (P27986 461-568 partner limits assumed) above

[6] = tested on: HBRX2524 human primary breast tumor; assay: HBRX2524 patient-derived breast tumor xenograft in nude mice; type: in vivo
Experimental: as §1, §2

[7] = Preclinical systemic exposure and tissue distribution; type: in vivo, mice and rats
[8] = at the dose necessary for tumor regression

SMILES: C[C@H]1OC(=O)N(c2cc(-c3cnc(N)nc3C(F)(F)F)nc(N3CCOCC3)n2)[C@H]1CO [CLR457]
- Racc, geometric mean (CV%) ([1]; 5 mg, n 2): 1.4 (33.4)
- V/F, geometric mean (CV%) ([1]; 5 mg, n 2): 43,139 (6.6) mL
- Racc, geometric mean (CV%) ([1]; 10 mg, n 3): 1.3 (24.3)
- V/F, geometric mean (CV%) ([1]; 10 mg, n 3): 66,520 (11.5) mL
- Racc, geometric mean (CV%) ([1]; 20 mg, n 4): 1.1 (28.4)
- V/F, geometric mean (CV%) ([1]; 20 mg, n 4): 55,193 (32.1) mL
- Racc, geometric mean (CV%) ([1]; 40 mg, n 5): 1.3 (38.4)
- V/F, geometric mean (CV%) ([1]; 40 mg, n 5): 115,503 (109.2) mL
- V/F, geometric mean (CV%) ([1]; 70 mg, n 4): 72,822 (49.9) mL
- Racc, geometric mean (CV%) ([1]; 70 mg, n 5): 1.4 (29.5)
- Racc, geometric mean (CV%) ([1]; 100 mg, n 4): 1.3 (37.0)
- V/F, geometric mean (CV%) ([1]; 100 mg, n 4): 67,311 (38.2) mL
- Steady state ([1]; repeated daily dosing): reached by C1D15
- Plasma insulin levels [2]: increased proportionally to CLR457 concentration
- Blood glucose levels [2, 8]: moderately perturbed
- Dose at which tumor regression occurred (Rat1-myr-p110α tumors): 20 mg/kg BID
- IC50 (p110δ): 39 ± 10 nM
- Plasma insulin levels [3]: increased proportionally to CLR457 concentration
- Blood glucose levels [3, 8]: moderately perturbed
- Inhibition of PIK3CA mutant isoform E545K [4]: inhibited
- Inhibition of PIK3CA mutant isoform H1047R [5]: inhibited
- CTCAE grade of increase in glucose and insulin (glucose and insulin): ≤ 2
- IC50 (p110β): 56 ± 35 nM
- Dose at which tumor regression occurred [6]: 20 mg/kg BID
- Steady state AUC ([7]; at doses where tumor regression was observed): 22,769 ng*h/mL
- Central nervous system (CNS) penetration ([7]; from brain/plasma exposure ratio): minimal
- Mean tissue/plasma exposure ratio based on AUC, brain ([7]; in vivo): 0.07
- Mean tissue/plasma exposure ratio based on AUC, eyes ([7]; in vivo): 0.51
- Mean tissue/plasma exposure ratio based on AUC, heart ([7]; in vivo): 0.83
- Mean tissue/plasma exposure ratio based on AUC, pancreas ([7]; in vivo): 1.74
- Mean tissue/plasma exposure ratio based on AUC, skin ([7]; in vivo): 1
- Mean tissue/plasma exposure ratio based on AUC, spleen ([7]; in vivo): 1.22
